Measured values: ChEMBL document CHEMBL1139098, “3H-[1,2,4]-Triazolo[5,1-i]purin-5-amine derivatives as adenosine A2A antagonists” (Bioorg Med Chem Lett, 2007)

Legend:
[1] = species: Homo sapiens; assay: Selectivity for human adenosine A2A receptor over human adenosine A1 receptor
[2] = molecular target: Adenosine receptor A2a (Homo sapiens, UniProt P29274); assay: Antagonist activity at human adenosine A2A receptor; assay type: functional
[3] = tested on: Rattus norvegicus; assay: Effect on rat catalepsy model at 3 mg/kg, po after 4 hrs; assay type: functional
[4] = tested on: Rattus norvegicus; assay: Effect on rat catalepsy model at 1 mg/kg, po after 1 hr; assay type: functional
[5] = tested on: Rattus norvegicus; assay: Effect on rat catalepsy model at 1 mg/kg, po after 4 hrs; assay type: functional
[6] = tested on: Rattus norvegicus; assay: Effect on rat catalepsy model at 3 mg/kg, po after 1 hr; assay type: functional
[7] = AUC in rat catalepsy model at 3.0 mg/kg, po; assay type: ADME, organism-based; design: dose 3 mg/kg, route oral; details: in vivo

Sequence of Adenosine receptor A2a (P29274 whole entry): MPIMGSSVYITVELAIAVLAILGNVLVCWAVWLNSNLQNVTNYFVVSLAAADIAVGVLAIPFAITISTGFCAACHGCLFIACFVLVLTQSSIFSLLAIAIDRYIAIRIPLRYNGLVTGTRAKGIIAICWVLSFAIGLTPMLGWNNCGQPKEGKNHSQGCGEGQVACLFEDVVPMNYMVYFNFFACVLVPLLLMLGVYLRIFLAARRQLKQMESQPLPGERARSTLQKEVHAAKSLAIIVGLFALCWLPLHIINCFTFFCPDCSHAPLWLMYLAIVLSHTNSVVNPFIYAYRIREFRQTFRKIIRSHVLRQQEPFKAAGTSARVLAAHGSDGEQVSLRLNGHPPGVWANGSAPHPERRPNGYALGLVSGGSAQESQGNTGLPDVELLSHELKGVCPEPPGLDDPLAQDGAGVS

Selectivity ratio [1] | Ki [2] [nM] | SMILES | further results
403 | 0.3 | Nc1nc2c(ncn2CCN2CCN(c3ccc(Cl)cc3F)CC2)c2nc(-c3ccco3)nn12 | 
76 | 20.5 | COCCOc1ccc(N2CCN(CCn3cnc4c3nc(N)n3nc(-c5ccccc5C)nc43)CC2)cc1 | 
218 | 0.4 | COCCOc1ccc(N2CCN(CCn3cnc4c3nc(N)n3nc(-c5ccco5)nc43)CC2)c(C(F)(F)F)c1 | 
9 | 1.7 | Nc1nc2c(ncn2Cc2ccccc2Cl)c2nc(-c3ccco3)nn12 | 
162 | 1 | Cc1ccc(N2CCN(CCn3cnc4c3nc(N)n3nc(-c5ccco5)nc43)CC2)nc1 | 
17 | 89.7 | COCCOc1ccc(N2CCN(CCn3cnc4c3nc(N)n3nc(-c5cccc[n+]5[O-])nc43)CC2)cc1 | 
371 | 0.4 | Nc1nc2c(ncn2CCN2CCN(c3cccc(Cl)c3)CC2)c2nc(-c3ccco3)nn12 | 
196 | 0.9 | Nc1nc2c(ncn2CCN2CCC(c3ccc(F)cc3)CC2)c2nc(-c3ccco3)nn12 | 
181 | 10 | COCCOc1ccc(N2CCN(CCn3cnc4c3nc(N)n3nc(-c5ccccc5C(F)(F)F)nc43)CC2)cc1 | 
15 | 9.3 | COCCOc1ccc(N2CCN(CCn3cnc4c3nc(N)n3nc(-c5ccccc5F)nc43)CC2)cc1 | 
669 | 0.9 | COCCOc1ccc(N2CCN(CCn3cnc4c3nc(N)n3nc(-c5ccco5)nc43)CC2)cc1 | Activity [3]: 50%; Activity [4]: 55%; Activity [5]: 50%; Activity [6]: 80%; AUC [7]: 524 ng·h/mL
37 | 6.3 | Nc1nc2c(ncn2CCN2CCOCC2)c2nc(-c3ccco3)nn12 | 
108 | 12.6 | COCCOc1ccc(N2CCN(CCn3cnc4c3nc(N)n3nc(-c5ccccn5)nc43)CC2)cc1 | 
7 | 4.6 | Nc1nc2c(ncn2Cc2ccccc2Br)c2nc(-c3ccco3)nn12 | 
91 | 3.7 | COCCOc1ccc(N2CCN(CCn3cnc4c3nc(N)n3nc(-c5ccccc5)nc43)CC2)cc1 | 
88 | 0.7 | Nc1nc2c(ncn2CCN2CCN(c3ccc(F)cc3F)CC2)c2nc(-c3ccco3)nn12 | 
517 | 0.8 | COCCOc1ccc(N2CCN(CCn3cnc4c3nc(N)n3nc(-c5ccco5)nc43)CC2)c(F)c1 | 
30 | 4.6 | Nc1nc2c(ncn2Cc2ccccc2C(F)(F)F)c2nc(-c3ccco3)nn12 | 
182 | 1.7 | Nc1nc2c(ncn2CCN2CCN(c3ccccc3)CC2)c2nc(-c3ccco3)nn12 | 

SMILES | Selectivity ratio [1] | Ki [2] [nM] | further results
Nc1nc2c(ncn2CCN2CCN(c3ncc(F)cn3)CC2)c2nc(-c3ccco3)nn12 | 378 | 1.4 | 
CCCn1cnc2c1nc(N)n1nc(-c3ccco3)nc21 | 50 | 5.9 | 
COCCOc1ccc(C2CCN(CCn3cnc4c3nc(N)n3nc(-c5ccco5)nc43)CC2)cc1 | 519 | 0.7 | 
COc1ccc(N2CCN(CCn3cnc4c3nc(N)n3nc(-c5ccco5)nc43)CC2)cc1 | 1700 | 0.1 | 
Nc1nc2c(ncn2CCN2CCN(c3ccc(Cl)cn3)CC2)c2nc(-c3ccco3)nn12 | 333 | 0.9 | 
Nc1nc2c(ncn2CCN2CCN(c3nccs3)CC2)c2nc(-c3ccco3)nn12 | 138 | 1.7 | 
Nc1nc2c(ncn2Cc2ccccc2)c2nc(-c3ccco3)nn12 | 17 | 1.5 | 
COCCOc1ccc(N2CCN(CCn3cnc4c3nc(N)n3nc(-c5cccc(F)c5)nc43)CC2)cc1 | 83 | 2 | 
Nc1nc2c(ncn2CCc2ccccc2)c2nc(-c3ccco3)nn12 | 33 | 4.1 | 
